Assay [1] has as its system durch Reserpin hervorgerufene Hypothermie bei Mäusen. The assay is described as follows: Antidepressant effect: antagonism of reserpine-induced hypothermia (Versuch 1). The assay is classed as in vivo, Maus. The conditions noted are these: 40 mg/kg p.o., 17 h after 3 mg/kg Reserpin s.c.; maximal re-rise of body temperature versus controls, measured 1 - 4 h after dosing; * = significant versus controls, p ≤ 0,05. From the text: (§1) Beispielsweise wurden die Verbindungen • A = 2-(2-Amino-3,5-dibrom-phenoxy-methylen)-morpholin-hydrochlorid, • B = 2-(4-Amino-3,5-dibrom-phenoxy-methylen)-4-isopropyl-morpholin- hydrochlorid, • C = 2-(4-Amino-3,5-dibrom-phenoxy-methylen)-morpholin-hydrochlorid, • D = 2-(2-Amino-3,5-dibrom-phenoxy-methylen)-4-tert.butyl-morpholin-hydrochlorid und • E = 2-(2-Amino-5-brom-4-chlor-phenoxy-methylen)-4-isopronyl- morpholin-dihydrochlorid ,im Vergleich zu • F = 2-(2-Äthoxy-phenoxy-methylen)-morpholin-hydrochlorid auf ihre biologischen Wirkungen wie folgt untersucht: • 1. […] Bei 20 - 26 g schweren männlichen Mäusen wurde durch 3 mg/kg Reserpin s.c. Hypothermie erzeugt. 17 Stunden später wurde die Körpertemperatur mittels eines elektrischen Schlundsondenthermometers gemessen. Anschließend wurden Gruppen von 6 - 10 Tieren die zu prüfenden Substanzen in der Dosis von 40 mg/kg p.o. verabreicht. Kontrollgruppen erhielten das Lösungsmittel (Aqua dest.). Die Körpertemperaturen wurden 1 - 4 Stunden nach Substanzverabreichung in stündlichem Abstand gemessen. Zur Auswertung wurden der maximale Wiederanstieg der Körpertemperatur der Substanzgruppe mit den Temperaturen der Kontrolltiergruppen verglichen und die Temperaturunterschiede mit dem MANN-WHITNEY-U-Test auf Signifikanz geprüft. • 2. […] Dazu wurde bei 10 männlichen, 20-26 g schweren Mäusen ein Krampfzustand mit Wechselstrom (50 mA, 50 Hz, 0,2 sec Dauer) über mit physiologischer : Kochsalz-Lösung angefeuchtete, an den Kopf der Tiere gelegte Metallelektroden erzeugt, wobei das Ausbleiben der tonischen Extensorkomponente dieses Krampfes 150 Minuten nach Substanzgabe als antikonvulsive Wirkung gewertet wurde.

The subject of assay [2] is maximalen Elektrokrampf bei Mäusen. The assay is described as follows: Anticonvulsant effect: maximal electroshock seizure (Versuch 2). It is filed as in vivo, Maus. The conditions noted are these: Mus musculus, 2.5 h.
Description: as §1

Assay [3] concerns Muskelrelax. + Sedierung Maus. The assay is described as follows: Muscle relaxation and sedation (Versuch 3). The assay is classed as in vivo. The conditions noted are these: mouse; method text not readable (image).
[4] abbreviates: male mice, 50 mA, 50 Hz, 0,2 sec, absence of tonic extensor component 150 min after dosing, ED50 by LITCHFIELD and WILCOXON, read-out: Versuch 2 Elektrokrampf Maus ED50-Hemmung.

Data on six molecules can be found in EP0000693A1, “Aminophenoxymethyl-2-morpholine derivatives, the preparation thereof and pharmaceuticals containing them” (Dr. Karl Thomae GmbH, priority 1977, dated 1979).

Structures can show the parent of a compound that is named as a salt. Where two headings read alike, the source gives them in different places. Some results are limits rather than exact numbers.

For the molecule `Nc1c(Br)cc(OCC2CNCCO2)cc1Br` (stereo not drawn) [C, 2-(4-Amino-3,5-dibrom-phenoxy-methylen)-morpholin-hydrochlorid], the “Versuch 1 Reserpin Maus 40 mg/kg: +°C” value in assay [1] is 7,3* °C. Also, the figures for the ED50 in assay [2] (setting [4]) and in assay [3] were 17.5 mg/kg and 21 mg/kg, respectively.

As to `CCOc1ccccc1OCC1CNCCO1` (stereo not drawn) [F, 2-(2-Äthoxy-phenoxy-methylen)-morpholin-hydrochlorid, reference compound], the “Versuch 1 Reserpin Maus 40 mg/kg: +°C” value in assay [1] was 9,8* °C. The ED50 was 42 mg/kg in assay [2] (read-out: Versuch 2 Elektrokrampf Maus ED50-Hemmung mg/kg) and roughly 200 mg/kg in assay [3].

With `CC(C)(C)N1CCOC(COc2cc(Br)cc(Br)c2N)C1` (stereo not drawn) [D, 2-(2-Amino-3,5-dibrom-phenoxy-methylen)-4-tert.butyl-morpholin-hydrochlorid], in assay [1], the “Versuch 1 Reserpin Maus 40 mg/kg: +°C” value is 0,6 °C. Moreover, the ED50 in assay [2] (setting [4]) is 150 mg/kg; in assay [3], greater than 200 mg/kg.

Consider `Nc1c(Br)cc(Br)cc1OCC1CNCCO1` (stereo not drawn) [A, 2-(2-Amino-3,5-dibrom-phenoxy-methylen)-morpholin-hydrochlorid], for which the “Versuch 1 Reserpin Maus 40 mg/kg: +°C” value in assay [1] was 10,7* °C. Moreover, the ED50 in assay [2] (setting [4]) was 26.5 mg/kg; in assay [3], greater than 200 mg/kg.

On to `CC(C)N1CCOC(COc2cc(Br)c(Cl)cc2N)C1` (stereo not drawn) [E, 2-(2-Amino-5-brom-4-chlor-phenoxy-methylen)-4-isopronyl-morpholin-dihydrochlorid], for which the “Versuch 1 Reserpin Maus 40 mg/kg: +°C” value in assay [1] is 1,0 °C. Moreover, the ED50 was 200 mg/kg in assay [2] (setting [4]) and greater than 200 mg/kg in assay [3].

Take `CC(C)N1CCOC(COc2cc(Br)c(N)c(Br)c2)C1` (stereo not drawn) [B, 2-(4-Amino-3,5-dibrom-phenoxy-methylen)-4-isopropyl-morpholin-hydrochlorid]: the “Versuch 1 Reserpin Maus 40 mg/kg: +°C” value in assay [1] is 8,4* °C. Also, the figures for the ED50 in assay [2] (setting [4]) and in assay [3] were 26 mg/kg and 60 mg/kg, respectively.
